Laboratory results reported in patent US20150250786A1, “PYRIMIDINE HYDROXY AMIDE COMPOUNDS AS PROTEIN DEACETYLASE INHIBITORS AND METHODS OF USE THEREOF” (THE TRUSTEES OF THE UNIVERSITY OF PENNSYLVANIA, priority 2012, published 2015).
Several values for one entry are separate records, joined by “and”; a condition that tells them apart may be missing. Equal values may be shown once. Read-outs that look alike come from different tables or passages of the source.

Experiments:
[1] = tested on: RN46A-B14 serotonergic cell line; assay: α-tubulin K40 acetylation in RN46A-B14 cells (Western blot); format: cell-based, rat; conditions: 4 hours; TSA 0.6 μM, others 2.5 μM
Experimental: In FIG. 3, it was observed that subchronic treatment, consisting of 5 treatments at 48, 28, 24, 4 and ½ hours before sacrifice, led to greater increase in tubulin acetylation than did chronic treatment of 1 injection/day for 21 days. For cell culture, RN46B cells were treated for with 0.25, 2.5 or 25 μM drug in DMSO for 1, 4 or 24 hours as indicated. Tukey post-hoc analysis: * P=0.01 to 0.05, ** P=0.001-0.01, ***P<0.001 when compared with vehicle treatment.
(§1) Results are shown as percent change normalized to the vehicle treatment condition. The horizontal hard line depicts average and the dotted lines depict SEM of the vehicle treated wells. Representative Western blot images are presented. […] Representative Western blot images are presented. […] The drugs (5 mg/kg) were administered subchronically (at 24 h, 4 h and 30 min prior to sacrifice) to HDAC6 KO and WT littermates. The changes in tubulin acetylation were measured in tissue lysates from cortex (ctx), hippocampus (Hpc), dorsal Raphe nucleus (DRN) and cerebellum (cb). The tubulin acetylation levels in drug-treated mice are expressed as percent change of the vehicle-treated mice of the corresponding genotype. The horizontal lines depict the average tubulin acetylation±SEM in the vehicle treated mice. The representative Western blot images show the changes induced by each drug treatment in the hippocampus (left column) and dorsal raphe (right column) of WT and HDAC6 KO mice.
In contrast to the class I isoforms HDAC2 and 3, which are expressed highly and ubiquitously in the mouse brain, HDAC6 mRNA expression appears to be restricted to a small number of brain areas, with highest signal observed in DRN (FIG. 13f). […] No changes in total α-tubulin expression were detected (FIG. 14a).

[2] = tested on: α-tubulin acetylation in mouse whole brain lysates; assay: α-tubulin acetylation in whole brain lysates after single i.p. administration; format: in vivo; conditions: compound 73 5 mg/kg, compound 101 50 mg/kg, tubastatin A 10 mg/kg, 30 min, 1 h, 4 h
[3] = tested on: α-tubulin K40 acetylation in cortex, hippocampus, DRN, cerebellum; assay: α-tubulin acetylation in brain regions after subchronic administration, WT and HDAC6 KO mice; format: in vivo, mouse
Experimental: as §1, with “The drugs (5 mg/kg) were administered subchronically (at 24 h, 4 h and 30 min prior to sacrifice) to HDAC6 KO and WT littermates.” left out

mice [4] = assay: Open-field test; format: in vivo, mouse
mice [5] = assay: Marble-burying task; format: in vivo, mouse; conditions: acute administration
mice [6] = assay: Elevated plus maze (EPM); format: in vivo, mouse; conditions: acute administration
[7] = tested on: NIH Swiss mice; C57BL/6J HDAC6 WT and KO mice; assay: Tail suspension test (TST); format: in vivo, mouse; conditions: NIH Swiss mice
mice [8] = assay: Chronic social defeat (CSD) and social interaction test; format: in vivo, mouse; conditions: after CSD; fluoxetine 20 mg/kg, compound 73 5 mg/kg, compound 101 50 mg/kg
Experimental: Additionally, when combined with a dose of Citalopram with lower activity, these compounds seemed to have an additive effect (See FIG. 10). The dose of Citalopram chosen for this experiment was based on literature stating 2 mg/kg should be subactive, but this dose was found still showing an effect. Mice then underwent chronic social defeat stress, in which the mice are exposed to an aggressive resident mouse for 5 minutes daily for 10 days and are then tested on the 11th day in the social interaction test. Mice treated with vehicle for 20 total days, beginning 10 days before the defeat, show reduced time spent in the interaction zone when a target mouse is present when compared with control mice. […] The percent of mice found to be resilient, defined as spending more time in the interaction zone than the lowest control (i.e. ˜52 s), is higher in HDAC6 inhibitor groups. All behavior testing done using NIH Swiss mice, age 6-10 weeks. Tukey post-hoc analysis: * P=0.01 to 0.05, ** P=0.001-0.01, ***P<0.001 compared with vehicle treated mice.
The effects were observed 30 minutes after acute 50 mg/kg i.p. injection, but not for the lower dose (5 mg/kg). Combination of subactive doses of the HDAC6 selective inhibitors (5 mg/kg) and citalopram (0.5 mg/kg) produced robust potentiation of anti-immobility activity (n=8-29 per condition). […] No difference was observed between HDAC6 WT and KO when treated with the vehicle (n=6-15 per condition). FIG. 16c is a timeline showing treatment period, social defeat and social interaction (SI) testing.
A pro-resilient phenotype in the mouse CSD paradigm after serotonin-selective KO of HDAC6 was previously reported (Espallergues et al, 2012). Whether a chronic pharmacological inhibition of HDAC6 can replicate that phenotype is studied. […] On day 21, 24 h after the last injection, the mice were tested in the social interaction test. […] Significant effects were also observed when data was evaluated in terms of proportion of mice reaching criterion for resiliency.

[9] = Pharmacokinetics and brain bio-distribution in mice; format: in vivo, mouse; conditions: mouse; for Kp: brain, calculated over 2 hours
Experimental: […] Plasma samples were taken from all mice upon sacrifice. Brain samples were taken from the mice sacrificed at 5 and 15 minutes and 1 and 4 hours. The brain samples were homogenized in PBS and centrifuged at 14000 rpm for 5 minutes. The supernatant from the brain homogenate and the plasma samples were injected onto a LC/MS/MS for analysis. The compound level in the samples was determined by a standard curve in the appropriate matrix. Pharmacokinetic parameters were determined from the raw data by WinNonLin.

[10] = tested on: all other class II HDAC isoforms; assay: HDAC inhibition, other class II isoforms; conditions: read-out: IC50 against all other class II HDAC isoforms

O=C(NO)c1cnc(NC2(c3cccc(F)c3)CCCCC2)nc1 [Compound 101, 2-((1-(3-fluorophenyl)cyclohexyl)amino)-N-hydroxypyrimidine-5-carboxamide]
acetylated (lysine 40) fraction of α-tubulin [1]: increases
α-tubulin acetylation in whole brain lysates [2]: significant increases
α-tubulin acetylation over baseline levels ([3]; HDAC6 KO mice, identical treatment regimens): did not produce increases
α-tubulin acetylation in cortex, hippocampus, DRN, cerebellum ([3]; wild-type mice, 24 h, 4 h, 30 m before sacrifice, compound 73 5 mg/kg, compound 101 50 mg/kg): significant increases
exploratory activity in novel open-field arena (mice [4]; acute, compounds 73, 101 50 mg/kg, tubastatin A 10 mg/kg): hyperlocomotor effects
distance in the center of the open field (mice [4]; mouse, in vivo): 419±73 beam breaks
open-field exploration in neural cell selective HDAC6 KO mice (mice [4]; same doses (50 mg/kg)): did not significantly alter
number of marbles buried (mice [5]): significantly reduced
behavioral changes / time in the open arms of the maze (mice [6]): neither compound 73 nor compound 101 produced behavioral changes
immobility in TST ([7]; 5 mg/kg): No significant effect
immobility in TST ([7]; 50 mg/kg i.p., 30 minutes): Significant reductions
percentage of resilient mice (mice [8]): 58%
Kp ([9]; C57BL/6J, intraperitoneal, read-out: AUCBrain/AUCplasma): 1.26
concentration at 30 min ([9]; C57BL/6J, plasma, intraperitoneal, 5 mg/kg, read-out: 30 min plasma concentration (ng/ml) - 5 mg/kg): 496 ng/mL
concentration at 30 min ([9]; C57BL/6J, plasma, intraperitoneal, 50 mg/kg, read-out: 30 min plasma concentration (ng/ml) - 50 mg/kg): 1360 ng/mL
Cmax ([9]; C57BL/6J, plasma, ip, 5 mg/kg, mice, acute i.p. dosing, read-out: Cmax): 915 ng/mL
half-life ([9]; C57BL/6J, plasma, ip, mice, acute i.p. dosing, read-out: T½ plasma (converted)): 30 min
Kp ([9]; intraperitoneal, read-out: AUCBrain/AUCplasma ratio): > 1
concentration at 30 min ([9]; plasma, intraperitoneal, acute 50 mg/kg injection, read-out: plasma level at t=30 minutes): 1360 ng/mL and 4.1 µM
concentration at 2 h ([9]; plasma, intraperitoneal, read-out: plasma concentration after two hours): < 10 ng/mL
half-life ([9]; plasma, intraperitoneal, read-out: plasmatic half-life): 12 min
IC50 [10]: > 1000 nM
